Results taken from patent publication US10376476B2, “Panicein compounds, compositions and uses thereof” (CENTRE NATIONAL DE LA RECHERCHE SCIENTIFIQUE, priority 2014, dated 2019).

Assays:
[1] = biological target: T1, mutant Patched G509VD513Y (hPtcVXXXY) expressed in yeasts (Homo sapiens, UniProt Q13635, D513Y/G509V); experiment: Doxorubicin efflux from yeasts (intracellular dxr fluorescence); format: cell-based; details: hPtc-YXXXG-yeasts (mutant Patched), 10 μM paniceins, 10 min, 5 mM 2-deoxy-D-glucose
T1 construct: MAP; expressed in transfected cells; host or cells: Saccharomyces cerevisiae K699
T1 sequence (Q13635 1-1447 G509V/D513Y): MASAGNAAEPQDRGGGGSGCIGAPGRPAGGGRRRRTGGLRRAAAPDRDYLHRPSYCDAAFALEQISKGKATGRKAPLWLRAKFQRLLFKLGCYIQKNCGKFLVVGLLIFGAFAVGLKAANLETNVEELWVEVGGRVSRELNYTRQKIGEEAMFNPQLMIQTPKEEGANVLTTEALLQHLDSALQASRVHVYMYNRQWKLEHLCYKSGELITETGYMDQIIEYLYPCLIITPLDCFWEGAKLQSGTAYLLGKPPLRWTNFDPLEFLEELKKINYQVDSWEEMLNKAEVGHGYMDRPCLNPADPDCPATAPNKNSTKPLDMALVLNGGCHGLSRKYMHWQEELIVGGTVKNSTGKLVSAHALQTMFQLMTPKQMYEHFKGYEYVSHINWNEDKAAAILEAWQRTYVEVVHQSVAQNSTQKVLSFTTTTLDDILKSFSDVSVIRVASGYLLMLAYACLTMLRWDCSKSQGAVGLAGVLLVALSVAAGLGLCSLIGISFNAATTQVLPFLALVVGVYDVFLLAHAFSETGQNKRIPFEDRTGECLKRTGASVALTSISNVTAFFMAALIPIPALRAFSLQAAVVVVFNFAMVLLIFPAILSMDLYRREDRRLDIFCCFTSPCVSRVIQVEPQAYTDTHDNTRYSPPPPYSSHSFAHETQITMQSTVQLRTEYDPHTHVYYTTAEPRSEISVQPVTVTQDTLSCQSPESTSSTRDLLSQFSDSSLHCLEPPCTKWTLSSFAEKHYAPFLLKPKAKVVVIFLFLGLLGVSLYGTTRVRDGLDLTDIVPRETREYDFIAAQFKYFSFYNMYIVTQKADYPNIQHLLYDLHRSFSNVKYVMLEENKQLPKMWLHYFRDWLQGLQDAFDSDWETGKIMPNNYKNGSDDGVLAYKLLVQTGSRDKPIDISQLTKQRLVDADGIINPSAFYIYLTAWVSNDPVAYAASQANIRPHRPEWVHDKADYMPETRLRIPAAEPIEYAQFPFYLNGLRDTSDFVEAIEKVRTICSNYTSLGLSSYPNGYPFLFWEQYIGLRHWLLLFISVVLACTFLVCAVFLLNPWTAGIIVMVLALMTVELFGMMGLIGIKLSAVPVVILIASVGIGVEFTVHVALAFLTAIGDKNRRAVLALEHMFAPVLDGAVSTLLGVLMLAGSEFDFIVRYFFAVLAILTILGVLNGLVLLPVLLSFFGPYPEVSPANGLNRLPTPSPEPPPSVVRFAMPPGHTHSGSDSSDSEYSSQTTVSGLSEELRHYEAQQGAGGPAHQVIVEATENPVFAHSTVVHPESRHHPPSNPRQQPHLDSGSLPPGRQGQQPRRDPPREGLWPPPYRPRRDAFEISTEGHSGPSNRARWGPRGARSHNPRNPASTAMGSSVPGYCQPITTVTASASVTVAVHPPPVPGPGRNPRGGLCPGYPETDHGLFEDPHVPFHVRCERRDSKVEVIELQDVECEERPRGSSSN
Experimental: A. Compound P5 inhibits doxorubicin efflux from melanoma cells MeWo and A375. Cells were grown on cover-slips, incubated for 2 hour at 37° C. with 10 μM doxorubicin and quickly rinsed with phosphate buffer (pH 7.4). One cover-slip of each cell line was immediately fixed for doxorubicin charge control. The other cover-slips were incubated with buffer supplemented with DMSO or 10 μM of compound P5 30 min under gentle shaking and immediately fixed. Dxr intracellular fluorescence was visualized by epifluorescence and analyzed using Image J software on more than 30 cells of 3 different fields for each condition. The results were analyzed using the Student t test in which significance is attained at P<0.05 (**: P<0.005, ***: P<0.0005). B. Paniceins inhibit doxorubicin efflux from Patched-expressing yeasts. Yeasts expressing wild-type Patched (hPtc, in black), mutant Patched G509VD513Y (hPtcVXXXY, in grey), and control yeasts (in white) were incubated in buffer supplemented with 5 mM of 2-deoxy-D-glucose and 10 μM dxr for 2 hours at 4° C. After centrifugation and supernatant removing, one sample was immediately fixed for charge control and the other samples were resuspended in buffer containing 5 mM of 2-deoxy-D-glucose supplemented with DMSO or 10 μM of paniceins 10 minutes at 25° C. with gentle shaking. After centrifugation and supernatant removing, samples were fixed and deposited on coverslips for epifluorescence microscopy observation. Dxr intracellular fluorescence quantification was carried out using Image J software on more than 30 yeasts on 3 different fields for each condition. The results were analyzed using the Student t test in which significance is attained at P<0.05 (*).
On yeasts: Yeasts expressing Patched (hPtc), mutant Patched (hPtcG509VD513Y), or control yeasts were washed with cold water, resuspended at an OD600 of 10 in Hepes-NaOH buffer (pH 7.0) supplemented with 5 mM of 2-deoxy-D-glucose, and incubated with 10 μM doxorubicin for 2 hours at 4° C. in the cold room on a rotating wheel protected from light. Yeasts were centrifuged and the supernatant was removed. One sample was immediately fixed with 4% paraformaldehyde for doxorubicin loading control. The other samples were resuspended in Hepes-NaOH buffer (pH 7.0) containing 5 mM of 2-deoxy-D-glucose supplemented with DMSO or 10 μM of paniceins, and incubated 10 minutes at 20° C. with gentle shaking in a Benchmark Multi-therm shaker protected from light. Samples were centrifuged for 1 minute at 18,000 g, supernatants were removed and yeasts were fixed with 4% paraformaldehyde. 10 μL of each sample were deposited on a coverslip and observed by epifluorescence microscopy using an objective 63x and filters for Alexa 594. Quantification of doxorubicin intracellular fluorescence was carried out using Image J software on more than 30 yeasts on 3 different fields for each condition. The results were analyzed using the Student t test in which significance is attained at P <0.05.
In order to see if Paniceins inhibit dxr efflux through Patched inhibition, inventors compared dxr efflux on yeasts over-expressing human Patched and control yeasts. After loading with dxr, yeasts were centrifuged and fixed for dxr loading control (LC), or resuspended in buffer supplemented with DMSO or paniceins for efflux measurements. After 10 min a 20° C., yeasts were collected, fixed and deposited on cover-slips. 2-deoxy-D-glucose was added in buffer during loading and efflux in order to inhibit ATP-binding cassette (ABC) transporters. Dxr fluorescence intensity of at least 30 yeasts was measured for each experiment. FIGS. 6A and 12A show the mean fluorescence intensity of 3 independent experiments. […] This was confirmed using yeasts over-expressing Patched mutant VXXXY. […] Yeasts over-expressing hPtcVXXXY are less resistance to growth inhibition by dxr than yeasts over-expressing wild-type hPtc (Bidet et al., 2012).

A375 melanoma cells = experiment: Vemurafenib cytotoxicity, viability test using neutral red; format: cell-based, human; details: A375, 10 μM panicein A hydroquinone

Compound | Efflux (%) of dxr [1] [%] | increase of vemurafenib cytotoxicity (A375 melanoma cells)
C/C(=C\Cc1cc(O)ccc1O)CCc1c(C)c(O)c(O)c(C=O)c1C [P2, Panicein C] | 39 | 
C/C(=C\Cc1cc(O)ccc1O)CCc1c(C)cc(O)c(C=O)c1C [P3, Panicein B3] | 32 | 
Cc1cc(O)c(C=O)c(C)c1CCC1(C)C=Cc2cc(O)ccc2O1 (centres unmarked) [P4, Panicein B2] | 38 | 
COc1cc(C)c(CC/C(C)=C/Cc2cc(O)ccc2O)c(C)c1C [P5, Panicein A hydroquinone] | 42 | strongly increases
